According to patent publication US20050059645A1, “Methods for the treatment of male and female sexual dysfunction” (priority 2003, published 2005):

Columns and labels:
[1] = tested on: LH; assay: Plasma LH by radioimmunoassay in ovariectomized female rats; type: in vivo, rat; details: 0.003, 0.01 and 0.03 mg/kg i.v. daily for 5 days
Experimental: After recovery from surgery, ovariectomized female rats were divided into four groups and treated once a day for five days intravenously, via a bolus injection through the tail vein, as follows: (1) control, 27% HPβCD solution; (2) 0.003 mg/kg E2-CDS dissolved in 27% HPβCD solution; (3) 0.01 mg/kg E2-CDS dissolved in 27% HPβCD solution; and (4) 0.03 mg/kg E2-CDS dissolved in 27% HPβCD solution. A minimal number of ovariectomized (8 to 12) females were used per group. Intravenous treatments either with E2-CDS or HPβCD (controls) were carried out daily for 5 days beginning 2 days prior to the first day of behavior observations, in a volume of 0.05 ml/100 g body weight.
An experienced and active male rat was placed in the arena 5 minutes prior to the female. […] The lordosis quotient (LQ) expresses the estrogen effect on sexual receptivity and was calculated as follows: LQ=100×number of lordoses/10 mounts The observation of the sexual behavior of each female was carried out, in the case of E2-CDS, every day for 22 days; in the case of EB, investigations were carried out every day for 10 days. […] Citrated blood samples were taken by retro-orbital sinus puncture under light ether anesthesia. […] Plasma LH concentrations from individual samples were measured by double antibody radioimmunoassay kits obtained from Amersham Pharmacia Biotech, Rome, Italy. […]

[2] = tested on: 2OHE1/16OHE1; assay: Phase I: urinary estrone metabolites 2OHE1/16OHE1; type: in vivo, human; details: for amount of urinary 16OHE1 relative to day 1: female, human, in vivo
From the text: A brief evaluation of the results follows:

[3] = tested on: castrated male rats; assay: Male rat copulatory behavior after orchidectomy; type: in vivo
Experimental: Adult male Sprague Dawley rats (300-400 g) from Charles River Hungary Ltd., Godollo, Hungary, were used. Animals were kept in community cages (4 animals/cage) in a climate-controlled room (23±2° C.), with a 14 hour light, 10 hour dark cycle of artificial lighting, using reversed light/dark cycle. […] These hormones were dissolved in sunflower oil.
After establishment of basal behaviors as discussed below, selected animals were orchidectomized via a single midventral incision and were rehoused.
After repeated testing of animals recovered from orchidectomy as discussed below, rats were divided into four groups and treated intravenously, via a single tail vein injection, with one of the following: group 1: control (27% hydroxypropyl-β-cyclodextrin); group 2: 0.03 mg/kg E2-CDS; group 3: 0.3 mg/kg E2-CDS; and group 4: 3 mg/kg E2-CDS.
Mating was observed during the dark cycle in a plexi observation cage in a room where only a dim red light was on. The male was placed in the observation cage 5 minutes prior to the female.
The following parameters were then measured: • Mount latency (ML): the time from the introduction of the female to the initial mount or intromission; • Intromission latency (IL): the time from introduction of the female to the first intromission; and • Ejaculatory latency (EL): the time from the first intromission to ejaculation.
Sessions were considered negative if IL exceeded 15 minutes.
To establish basal behavior, each male was tested every 5 days until four successive and consistent behavioral patterns were achieved. This pretesting lasted for about four weeks. Approximately half of the animals tested were deemed suitable for orchidectomy.
Twenty-eight days after healing from orchidectomy, the animals were tested again (Day 0) and divided into 4 experimental groups. Only animals displaying ejaculation latencies greater than 15 minutes were included in the study.
Tests of male sexual behavior were conducted 3, 7, 14, 21, 28, 35 and 42 days after drug administration or until the effect disappeared, i.e. until no statistically significant difference was found between groups during two consecutive tests.
Behavioral patterns and related times were recorded manually by skilled observers.
(§1) Four weeks following orchidectomy, groups of rats were treated with one of the following drug doses via tail vein injection: E2-CDS 0.03, 0.3, and 3 mg/kg. Blood samples were collected by orbital sinus puncture under light ether anesthesia. The samples were stored at 4° C. for one hour and centrifuged at 1,000 g for 10 minutes. Plasma was separated and stored at −80° C. until assayed. Plasma LH concentrations from individual samples were measured by double antibody radioimmunoassay kits obtained from Amersham Pharmacia Biotech, Rome, Italy. […] The limit of detection was 15 pg/ml.
(§2) Behavioral changes were analyzed using the Mann-Whitney U test (Siegel, Nonparametric Statistics for the Behavioral Sciences, New York; McGraw-Hill Book Company, Inc., 1956). The Fisher exact test was used for percentage comparisons (Zar, Biostatistical Analysis, Prentice Hall, Inc., Englewood Cliffs, N.J., 1974). Serum LH data were analyzed for each time and treatment group by analysis of variance (ANOVA) followed by Bonferroni posthoc test.
The testing described above was repeated using a dose of 0.03 mg/kg administered as a single i.v. injection, and a dose of 0.01 mg/kg with daily i.v. administration for 10 days. E2-CDS stock solution (40%) was diluted in 27% HPβCD solution.
The copulatory behavior of E2-CDS treated groups was compared to that of the HPβCD control group at 1, 3, 7, 14, and 21 days after i.v. drug administration in the 0.03 mg/kg group and at 1, 3, 7, 14 and 21 days after initial i.v. drug administration in the 0.01 mg/kg×10 days group.

[4] = tested on: LH; assay: Plasma LH by radioimmunoassay in orchidectomized male rats; type: in vivo, rat; details: for plasma LH level: repeated examination
Experimental: as §1, §2

[5] = tested on: LH; details: cited from earlier work
[6] = tested on: postmenopausal women; assay: Phase I: safety and tolerance (adverse events); details: 2.86 mg buccal, both regimens
Experimental: Even more recently, in a Phase I clinical study of postmenopausal women, two different administration regimens of a 2.86 mg E2-CDS buccal delivery tablet were evaluated for safety and effects on hormone levels. The subjects were 12 healthy postmenopausal volunteers, divided into two groups of six. In Group A, women were dosed once daily for 10 days (10 doses); in Group B, women were dosed once every other day for 13 days (7 doses).

[7] = 3.0 mg/kg single i.v., days 14, 21 and 28

With `CN1C=CCC(C(=O)O[C@H]2CC[C@H]3[C@@H]4CCc5cc(O)ccc5[C@H]4CC[C@]23C)=C1` [E2-CDS, 17β-[(1-methyl-1,4-dihydro-3-pyridinyl)carbonyloxy]estra-1,3,5(10)-trien-3-ol] the “plasma LH levels, effect” value [1] was “suppressed at all dosage levels”, the “increase of ratio of 2OHE1 to 16OHE1 during treatment” value ([2]; Group A) was 63.6% and the “increase of ratio of 2OHE1 to 16OHE1 during treatment” value ([2]; Group B) was 54.7%. The “difference of mean ratios, urine” value ([2]; day 10-1, Group A) was 0.15, the “difference of mean ratios, urine” value ([2]; day 13-1, Group B) was 0.05 and the “amount of urinary 16OHE1 relative to day 1” value ([2]; 10 day) was 2.48 times. The “amount of urinary 16OHE1 relative to day 1” value ([2]; 13 day) was 1.26 times, the “effect on copulatory behavior” value ([3]; 0.03 mg/kg single i.v., first study) was “no statistically significant effect” and the sexual activity ([3]; 0.03 mg/kg single i.v., repeated study) was “improved sexual activity, but it was not statistically significant in any observations”. The mount frequency ([3]; 0.3 mg/kg single i.v.) was “significantly increased on day 7”, the mount latency ([3]; 0.3 mg/kg single i.v.) was “sharply reduced from day 7 through day 28” and the intromission performance ([3]; 3.0 mg/kg single i.v.) was “improved in a statistically significant manner from day 14 through day 28”. For the same compound, the mount latency ([3]; 3.0 mg/kg single i.v.) was “sharply reduced from day 7 through day 28”, the intromission frequency [3, 7] was “statistically significant increase in intromission frequency” and the intromission latency [3, 7] was “decrease in intromission latency”. For the same compound, the “effect on re-establishment of copulatory behavior” value ([3]; 0.3 and 3.0 mg/kg single i.v.) was “significant at doses of 0.3 and 3.0 mg/kg through day 28”, the “plasma LH level” value ([4]; 0.01 mg/kg i.v., 10 daily injections) was “significantly reduced at the dose of 0.01 mg/kg (10 daily injections) from day 3 to day 14” and the “plasma LH level” value ([4]; 0.03 mg/kg single injection) was “significantly reduced on day 3 only”. For the same compound, the “plasma LH levels” value ([4]; 0.3 mg/kg single i.v.) was “significantly reduced the LH levels on days 1, 3, and 7”, the “plasma LH levels” value ([4]; 3 mg/kg single i.v.) was “suppressed significantly throughout 28 days” and the LH levels ([5]; 3 mg/kg single i.v., 12, 18 and 24 days post-treatment) was “remained very significantly reduced”. The “duration of suppression of LH” value ([5]; castrated male rats, 3 mg/kg i.v. studies) was “at least 24 days” and the “severity of adverse events” value [6] was “All AEs were mild or moderate, no serious AE was observed”.
